Patent US12097181B2, “Swine maternal neonatal pheromone” (Texas Tech University System, priority 2019, dated 2024)
“Also recorded” adds a separate entry of the source.

Test system: piglets
Experiment: Preference test: piglet preference for feeders sprayed with maternal semiochemicals
Assay type: in vivo, Swine (Sus scrofa)
Details: for overall preference index (PI) / percentage of time piglets spent interacting with the feeder: feeder sprayed with 5 mL testing solution (4.5 mg skatole and/or 9.0 mg myristic acid) vs mineral oil control feeder, litters 7±2 d of age, two 5-h test days; for piglet preference or aversion for sprayed feeder compared to control: feeder sprayed with testing solution vs mineral oil control
Description: Piglets used in this study were from a terminal cross between PIC Camborough genetic line sows and a terminal sire. Litters were housed in conventional slatted floor farrowing crates (1.52 m×2.13 m). All piglets were ear notched, teeth clipped, and injected with iron at 3 days of age. During this day, all males within a litter were also castrated by farm personnel. Prior to the study, piglets had no creep feeder. The preference test was performed in their home farrowing crate. Preference tests were conducted to determine piglet preference for skatole and myristic acid. First, nine litters (105 piglets) were used to evaluate piglet preference toward a solution containing both, skatole and myristic acid (N=9). Once piglet preference for a solution containing both molecules was determined, 8 litters (79 piglets) were used to evaluate piglet preference for skatole (N=8) and another 8 litters (80 piglets) to evaluate piglet preference for myristic acid (N=8) individually. Each litter was tested only once to ensure that piglets were tested at the same age and that they were not previously exposed to a feeder or a semiochemical.
At 7±2 days of age, two three-hole galvanized steel baby pig feeders were placed at each front corner of the farrowing crate for five hours for two consecutive days (FIG. 6). […] The sow was present during each five hours trial. Each feeder contained 100 g of pig pre-starter (MoorMan's ShowTec Prestarter, ADM, Quincy, IL) and was sprayed with either 5 mL of mineral oil (control) or 5 mL of the testing solution. The solution was sprayed on the feeder and not the feed. The 5 mL of the testing solution contained 4.5 mg of skatole and/or 9.0 mg of myristic acid. This concentration was selected based on the estimated concentration of each analyte in 150 g of lactating sow faeces based on GC/MS analysis. On the second testing day, feeder locations were switched to correct for side biases. A single observer following a 30 second scan sampling method, observed the behavior of each piglet in the litter at 30 second intervals to determine the percentage of time piglets spent interacting with each feeder during the five-hour period each testing day. A total of 600 observations were recorded per litter in each testing day. The percentage of time piglets within a litter spent interacting with each feeder was calculated by dividing the number of time piglets were observed interacting with a feeder over the total number of observations. Interacting with the feeder was defined as when piglets were sniffing, touching or licking the area of the feeder sprayed with the solution or eating or rooting the feed. A preference index was calculated for each feeder by dividing the amount of time piglets were observed interacting with a feeder by the sum of the number of times piglets were observed interacting with both feeders.
For each litter (experimental unit), an overall feed intake, preference index, and percentage of time interacted with each feeder was obtained from both testing days. Difference in overall feed intake, preference index, and percentage of time piglets spent interacting with the control and the feeder sprayed with the testing solutions were analyzed using the Wilcoxon-singed ranked test. […] All statistical analyses were performed using SAS 9.4. (SAS Inst., Inc., Cary, NC). A statistically significant difference was based on a P value≤0.05.

CCCCCCCCCCCCCC(=O)O [Myristic acid, Tetradecanoic acid]
overall preference index (PI): 0.47
percentage of time piglets spent interacting with the feeder: 0.48%
piglet preference or aversion for sprayed feeder compared to control: No preference or aversion; also recorded: No preference

Cc1c[nH]c2ccccc12 [Skatole, 3-methylindole]
overall preference index (PI): 0.51
percentage of time piglets spent interacting with the feeder: 0.54%
piglet preference or aversion for sprayed feeder compared to control: No preference or aversion; also recorded: No preference
